Tests used:
Format in all cases: in vivo
[1] = tested on: pigweed (Amaranthus retroflexus); assay: Test A postemergence application, visual injury rating; settings: for pest or weed control at 125 g/ha: 125 g ai/ha
How it was run: (§1)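 Compounds in a surfactant-containing solvent were applied as a directed soil spray preemergence, or postemergence to plants 2-10 cm tall at the one- to two-leaf stage, in loam-sand blend. After about 10 d in the greenhouse, injury was rated visually against untreated controls on a 0-100 scale (100 = complete control).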

[2] = tested on: galium (catchweed bedstraw, Galium aparine); assay: as above; settings: for pest or weed control at 125 g/ha: 125 g ai/ha
How it was run: as §1

kochia (Kochia scoparia) [3] = assay: as above; settings: for pest or weed control at 125 g/ha: 125 g ai/ha
How it was run: as §1

[4] = tested on: barnyardgrass (Echinochloa crus-galli); assay: as above; settings: Echinochloa crus-galli, post-emergence, 240 h, 0 to 100 scale, 0 no effect, 100 complete control, read-out: Barnyardgrass plant response rating; for pest or weed control at 125 g/ha: 125 g ai/ha
How it was run: as §1

[5] = tested on: blackgrass (Alopecurus myosuroides); assay: as above; settings: Alopecurus myosuroides, post-emergence, 240 h, 0 to 100 scale, 0 no effect, 100 complete control, read-out: Blackgrass plant response rating; for pest or weed control at 125 g/ha: 125 g ai/ha
How it was run: as §1

[6] = tested on: ragweed (common ragweed, Ambrosia elatior); assay: as above; settings: for pest or weed control at 125 g/ha: 125 g ai/ha
How it was run: as §1

corn (Zea mays) = assay: as above; settings: for plant injury at 125 g/ha: 125 g ai/ha
How it was run: as §1

[7] = tested on: foxtail, giant (giant foxtail, Setaria faberii); assay: as above; settings: for pest or weed control at 125 g/ha: 125 g ai/ha
How it was run: as §1

[8] = tested on: ryegrass, It. (Italian ryegrass, Lolium multiflorum); assay: as above; settings: for pest or weed control at 125 g/ha: 125 g ai/ha
How it was run: as §1

[9] = tested on: wheat (Triticum aestivum); assay: as above; settings: for plant injury at 125 g/ha: 125 g ai/ha
How it was run: as §1

[10] = tested on: ducksalad (Heteranthera limosa); assay: Test B flooded paddy test, visual rating; settings: Heteranthera limosa, 360 h; Flood, 250 g ai/ha, applied to paddy water, rated after 13 to 15 d; read-out: Ducksalad plant response rating (0 to 100 scale, 0 is no effect, 100 is complete control)
How it was run: (§2)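 Plants grown to the 2-leaf stage. At treatment, pots were flooded to 3 cm above the soil, compound was applied directly to the paddy water, and that depth was held throughout. After 13 to 15 d in the greenhouse, response was rated visually against controls on a 0 (no effect) to 100 (complete control) scale.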

rice (Oryza sativa) = assay: Test B flooded paddy test, visual rating; settings: Oryza sativa, 360 h; Flood, 250 g ai/ha, applied to paddy water, rated after 13 to 15 d; read-out: Rice plant response rating (0 to 100 scale, 0 is no effect, 100 is complete control)
How it was run: as §2

[11] = tested on: sedge, umbrella (small-flower umbrella sedge, Cyperus difformis); assay: Test B flooded paddy test, visual rating; settings: Cyperus difformis, 360 h; Flood, 250 g ai/ha, applied to paddy water, rated after 13 to 15 d; read-out: Sedge, Umbrella plant response rating (0 to 100 scale, 0 is no effect, 100 is complete control)
How it was run: as §2

[12] = tested on: barnyardgrass (Echinochloa crus-galli); assay: Test B flooded paddy test, visual rating; settings: Echinochloa crus-galli, 360 h; Flood, 250 g ai/ha, applied to paddy water, rated after 13 to 15 d; read-out: Barnyardgrass plant response rating (0 to 100 scale, 0 is no effect, 100 is complete control)
How it was run: as §2

[13] = tested on: pigweed (Amaranthus retroflexus); assay: Test A preemergence, directed soil spray, visual injury rating; settings: Amaranthus retroflexus, pre-emergence, 240 h, 0 is no effect, 100 is complete control, read-out: Plant response rating (0 to 100 scale), Pigweed; for pest or weed control at 125 g/ha: 125 g ai/ha
How it was run: as §1

kochia (Kochia scoparia) [14] = assay: as above; settings: Bassia scoparia, pre-emergence, 240 h, 0 is no effect, 100 is complete control, read-out: Plant response rating (0 to 100 scale), Kochia; for pest or weed control at 125 g/ha: 125 g ai/ha
How it was run: as §1

[15] = tested on: barnyardgrass (Echinochloa crus-galli); assay: as above; settings: Echinochloa crus-galli, pre-emergence, 240 h, 0 is no effect, 100 is complete control, read-out: Plant response rating (0 to 100 scale), Barnyardgrass; for pest or weed control at 125 g/ha: 125 g ai/ha
How it was run: as §1

[16] = tested on: ragweed (common ragweed, Ambrosia elatior); assay: as above; settings: Ambrosia artemisiifolia, pre-emergence, 240 h, 0 is no effect, 100 is complete control, read-out: Plant response rating (0 to 100 scale), Ragweed; for pest or weed control at 125 g/ha: 125 g ai/ha
How it was run: as §1

[17] = tested on: ryegrass, It. (Italian ryegrass, Lolium multiflorum); assay: as above; settings: Lolium multiflorum, pre-emergence, 240 h, 0 is no effect, 100 is complete control, read-out: Plant response rating (0 to 100 scale), Ryegrass, It.; for pest or weed control at 125 g/ha: 125 g ai/ha
How it was run: as §1

[18] = Amaranthus retroflexus, post-emergence, 240 h, 0 to 100 scale, 0 no effect, 100 complete control, read-out: Pigweed plant response rating
[19] = Galium, post-emergence, 240 h, 0 to 100 scale, 0 no effect, 100 complete control, read-out: Galium plant response rating
[20] = Bassia scoparia, post-emergence, 240 h, 0 to 100 scale, 0 no effect, 100 complete control, read-out: Kochia plant response rating
[21] = Ambrosia artemisiifolia, post-emergence, 240 h, 0 to 100 scale, 0 no effect, 100 complete control, read-out: Ragweed plant response rating
[22] = Zea mays, post-emergence, 240 h, 0 to 100 scale, 0 no effect, 100 complete control, read-out: Corn plant response rating
[23] = Setaria faberi, post-emergence, 240 h, 0 to 100 scale, 0 no effect, 100 complete control, read-out: Foxtail, Giant plant response rating
[24] = Lolium multiflorum, post-emergence, 240 h, 0 to 100 scale, 0 no effect, 100 complete control, read-out: Ryegrass, It. plant response rating
[25] = Triticum aestivum, post-emergence, 240 h, 0 to 100 scale, 0 no effect, 100 complete control, read-out: Wheat plant response rating
[26] = 31 g ai/ha, 0 is no effect, 100 is complete control

CCOC(=O)Oc1c(C)nn(C)c(=O)c1-c1c(C)ccc2sccc12 [Compound 30, 1,6-dihydro-1,3-dimethyl-5-(5-methylbenzo[b]thien-4-yl)-6-oxo-4-pyridazinyl ethyl carbonate]
pest or weed control at 125 g/ha [1, 18]: 90%
pest or weed control at 500 g/ha ([1]; Amaranthus retroflexus, post-emergence, 240 h, 500 g ai/ha, 0 to 100 scale, 0 no effect, 100 complete control, read-out: Pigweed plant response rating): 90%
pest or weed control at 125 g/ha [2, 19]: 90%
pest or weed control at 500 g/ha ([2]; Galium, post-emergence, 240 h, 500 g ai/ha, 0 to 100 scale, 0 no effect, 100 complete control, read-out: Galium plant response rating): 100%
pest or weed control at 125 g/ha (kochia (Kochia scoparia) [3]; [20]): 90%
pest or weed control at 500 g/ha (kochia (Kochia scoparia) [3]; Bassia scoparia, post-emergence, 240 h, 500 g ai/ha, 0 to 100 scale, 0 no effect, 100 complete control, read-out: Kochia plant response rating): 100%
pest or weed control at 125 g/ha [4]: 10%
pest or weed control at 500 g/ha ([4]; 500 g ai/ha): 80%
pest or weed control at 125 g/ha [5]: 40%
pest or weed control at 500 g/ha ([5]; 500 g ai/ha): 90%
pest or weed control at 125 g/ha [6, 21]: 60%
pest or weed control at 500 g/ha ([6]; Ambrosia artemisiifolia, post-emergence, 240 h, 500 g ai/ha, 0 to 100 scale, 0 no effect, 100 complete control, read-out: Ragweed plant response rating): 90%
plant injury at 125 g/ha (corn (Zea mays); [22]): 20%
plant injury at 500 g/ha (corn (Zea mays); Zea mays, post-emergence, 240 h, 500 g ai/ha, 0 to 100 scale, 0 no effect, 100 complete control, read-out: Corn plant response rating): 40%
pest or weed control at 125 g/ha [7, 23]: 10%
pest or weed control at 500 g/ha ([7]; Setaria faberi, post-emergence, 240 h, 500 g ai/ha, 0 to 100 scale, 0 no effect, 100 complete control, read-out: Foxtail, Giant plant response rating): 70%
pest or weed control at 125 g/ha [8, 24]: 100%
pest or weed control at 500 g/ha ([8]; Lolium multiflorum, post-emergence, 240 h, 500 g ai/ha, 0 to 100 scale, 0 no effect, 100 complete control, read-out: Ryegrass, It. plant response rating): 100%
plant injury at 125 g/ha [9, 25]: 0%
plant injury at 500 g/ha ([9]; Triticum aestivum, post-emergence, 240 h, 500 g ai/ha, 0 to 100 scale, 0 no effect, 100 complete control, read-out: Wheat plant response rating): 30%
pest or weed control at 250 g/ha [10]: 0%
plant injury at 250 g/ha (rice (Oryza sativa)): 0%
pest or weed control at 250 g/ha [11]: 0%
pest or weed control at 250 g/ha [12]: 0%
pest or weed control at 125 g/ha [13]: 90%
pest or weed control at 500 g/ha ([13]; 500 g ai/ha): 100%
pest or weed control at 125 g/ha (kochia (Kochia scoparia) [14]): 10%
pest or weed control at 500 g/ha (kochia (Kochia scoparia) [14]; 500 g ai/ha): 80%
pest or weed control at 125 g/ha [15]: 0%
pest or weed control at 500 g/ha ([15]; 500 g ai/ha): 90%
pest or weed control at 125 g/ha [16]: 20%
pest or weed control at 500 g/ha ([16]; 500 g ai/ha): 90%
pest or weed control at 125 g/ha [17]: 90%
pest or weed control at 500 g/ha ([17]; 500 g ai/ha): 100%

Cn1nc(Cl)c(O)c(-c2nccc3ccccc23)c1=O [Compound 67, 6-chloro-5-hydroxy-4-(1-isoquinolinyl)-2-methyl-3(2H)-pyridazinone]
Plant response rating (0 to 100 scale), Pigweed [1, 26]: 40
pest or weed control at 125 g/ha [1, 18]: 50%
Plant response rating (0 to 100 scale), Galium [2, 26]: 20
pest or weed control at 125 g/ha [2, 19]: 40%
Plant response rating (0 to 100 scale), Kochia (kochia (Kochia scoparia) [3]; [26]): 0
pest or weed control at 125 g/ha (kochia (Kochia scoparia) [3]; [20]): 40%
pest or weed control at 31 g/ha ([4]; 31 g ai/ha): 0%
pest or weed control at 125 g/ha [4]: 0%
pest or weed control at 31 g/ha ([5]; 31 g ai/ha): 0%
pest or weed control at 125 g/ha [5]: 0%
Plant response rating (0 to 100 scale), Ragweed [6, 26]: 0
pest or weed control at 125 g/ha [6, 21]: 10%
Plant response rating (0 to 100 scale), Corn (corn (Zea mays); [26]): 0
plant injury at 125 g/ha (corn (Zea mays); [22]): 0%
Plant response rating (0 to 100 scale), Foxtail, Giant [7, 26]: 0
pest or weed control at 125 g/ha [7, 23]: 0%
Plant response rating (0 to 100 scale), Ryegrass, It. [8, 26]: 20
pest or weed control at 125 g/ha [8, 24]: 60%
Plant response rating (0 to 100 scale), Wheat [9, 26]: 0
plant injury at 125 g/ha [9, 25]: 0%
pest or weed control at 250 g/ha [10]: 0%
plant injury at 250 g/ha (rice (Oryza sativa)): 0%
pest or weed control at 250 g/ha [11]: 75%
pest or weed control at 250 g/ha [12]: 0%
pest or weed control at 31 g/ha ([13]; 31 g ai/ha): 10%
pest or weed control at 125 g/ha [13]: 20%
pest or weed control at 31 g/ha (kochia (Kochia scoparia) [14]; 31 g ai/ha): 0%
pest or weed control at 125 g/ha (kochia (Kochia scoparia) [14]): 0%
pest or weed control at 31 g/ha ([15]; 31 g ai/ha): 0%
pest or weed control at 125 g/ha [15]: 0%
pest or weed control at 31 g/ha ([16]; 31 g ai/ha): 0%
pest or weed control at 125 g/ha [16]: 0%
pest or weed control at 31 g/ha ([17]; 31 g ai/ha): 10%
pest or weed control at 125 g/ha [17]: 50%
